Test results: patent publication US11952611B2, “Methods and systems for detection of antibiotic resistance” (Laboratory Corporation of America Holdings, priority 2017, dated 2024)

Experiments:
Format in all cases: cell-based, Staphylococcus aureus
BAA-1720 MRSA = experiment: MRSA detection from BD BBL CultureSwabs (Table 4)
Protocol: Bacterial strains were serially diluted and BD BBL CultureSwabs™ were inoculated with 50 ul of LB with approximately the target number of cells of 1000 CFU, 500 CFU, 250 CFU, 125 CFU, 63 CFU, 31 CFU, 16 CFU, or 8 CFU. Swabs were eluted with 1 mL modified Amies solution (included with commercially available Copan e-Swabs™). 135 μL of the eluted solution was added to each well. 15 μL of cefoxitin was added to the wells to reach a final concentration of 1.8 μg/mL, 3.6 μg/mL, or 5.4 μg/mL. The plate was then sealed and incubated at 37° C. for 2 hours. 10 μL of recombinant phage (1.6×10^8 pfu/mL) was added to each well. The plate was then re-sealed and incubated at 37° C. for an additional 2 hours. A master mix was made containing 15 μL 5× lysis buffer, 50 μL luciferase assay buffer, and 1 μL luciferase substrate per well. 65 μL of master mix was added to each well. Luminescence from the reactions were read on a GLOMAX® Navigator and relative luminal units (RLU) for each reaction were plotted and analyzed. RLU values three times greater than an established background RLU level for modified Amies solution (>1500 RLU) were considered positive. The results, shown in Table 4, indicate that a positive MRSA determination was made with 23 CFU in a well, originating from approximately 125 CFU on a swab when incubated with the previously established cut-off of 1.8 μg/mL. Positive results are highlighted in grey.

12600 - MSSA = experiment: Table 6, MSSA alone
Protocol: (§1) Bacterial strains were serially diluted and transferred to a 96-well plate at 135 μL per well. 15 μL of cefoxitin was added to the wells to reach a final concentration of 1.8 μg/mL. The plate was then sealed and incubated at 37° C. for 2 hours or 3 hours. 10 μL of recombinant phage (1.6×10^8 pfu/mL) was added to each well. The plate was then re-sealed and incubated at 37° C. for an additional 1 or 2 hours. A master mix was made containing 15 μL 5× lysis buffer, 50 μL luciferase assay buffer, and 1 μL luciferase substrate per well. 65 μL of master mix was added to each well. Luminescence from the reactions was read on a GLOMAX® Navigator and relative luminal units (RLU) for each reaction were plotted and analyzed. RLU values three times greater than an established background RLU level for LB (>750 RLU) were considered positive. The results, shown in Table 6, indicate that samples with MRSA (38 CFU) can be distinguished from samples containing MSSA (up to 5088 CFU) using a 3-hour antibiotic/1-hour phage incubation protocol. Positive results are in bold. In Table 6, CFU values (318 CFU and 156 CFU) were experimentally validated by direct plating.

BAA-1720 - MRSA = experiment: Table 6, MRSA alone; conditions: MSSA detected CFU 0, MRSA 38
Protocol: as §1

[1] = target swab CFU 8, detected CFU 3
[2] = target swab CFU 16, detected CFU 1
[3] = target swab CFU 31, detected CFU 4
[4] = target swab CFU 63, detected CFU 5
[5] = target swab CFU 125, detected CFU 23
[6] = target swab CFU 250, detected CFU 28
[7] = target swab CFU 500, detected CFU 31
[8] = target swab CFU 1000, detected CFU 76
[9] = MSSA detected CFU 10176, MRSA 0

CO[C@@]1(NC(=O)Cc2cccs2)C(=O)N2C(C(=O)O)=C(COC(N)=O)CS[C@@H]21 [Cefoxitin, cefoxitin]
Cefoxitin (RLU) 1.8 ug/mL (BAA-1720 MRSA; [1]): 615 RLU | Cefoxitin (RLU) 3.6 ug/mL (BAA-1720 MRSA; [1]): 513 RLU | Cefoxitin (RLU) 5.4 ug/mL (BAA-1720 MRSA; [1]): 789 RLU | Cefoxitin (RLU) 1.8 ug/mL (BAA-1720 MRSA; [2]): 1711 RLU | Cefoxitin (RLU) 3.6 ug/mL (BAA-1720 MRSA; [2]): 1623 RLU | Cefoxitin (RLU) 5.4 ug/mL (BAA-1720 MRSA; [2]): 1172 RLU | Cefoxitin (RLU) 1.8 ug/mL (BAA-1720 MRSA; [3]): 3572 RLU | Cefoxitin (RLU) 3.6 ug/mL (BAA-1720 MRSA; [3]): 1469 RLU | Cefoxitin (RLU) 5.4 ug/mL (BAA-1720 MRSA; [3]): 1438 RLU | Cefoxitin (RLU) 1.8 ug/mL (BAA-1720 MRSA; [4]): 900 RLU | Cefoxitin (RLU) 3.6 ug/mL (BAA-1720 MRSA; [4]): 1068 RLU | Cefoxitin (RLU) 5.4 ug/mL (BAA-1720 MRSA; [4]): 948 RLU | Cefoxitin (RLU) 1.8 ug/mL (BAA-1720 MRSA; [5]): 3630 RLU | Cefoxitin (RLU) 3.6 ug/mL (BAA-1720 MRSA; [5]): 4720 RLU | Cefoxitin (RLU) 5.4 ug/mL (BAA-1720 MRSA; [5]): 4597 RLU | Cefoxitin (RLU) 1.8 ug/mL (BAA-1720 MRSA; [6]): 6254 RLU | Cefoxitin (RLU) 3.6 ug/mL (BAA-1720 MRSA; [6]): 3843 RLU | Cefoxitin (RLU) 5.4 ug/mL (BAA-1720 MRSA; [6]): 3381 RLU | Cefoxitin (RLU) 1.8 ug/mL (BAA-1720 MRSA; [7]): 7571 RLU | Cefoxitin (RLU) 3.6 ug/mL (BAA-1720 MRSA; [7]): 7693 RLU | Cefoxitin (RLU) 5.4 ug/mL (BAA-1720 MRSA; [7]): 5263 RLU | Cefoxitin (RLU) 1.8 ug/mL (BAA-1720 MRSA; [8]): 13210 RLU | Cefoxitin (RLU) 3.6 ug/mL (BAA-1720 MRSA; [8]): 7193 RLU | Cefoxitin (RLU) 5.4 ug/mL (BAA-1720 MRSA; [8]): 6922 RLU | 2 HR AB + 2 HR Phage 1.8 ug/mL (12600 - MSSA; MSSA detected CFU 156, MRSA 0): 423 RLU | 3 HR AB + 1 HR Phage 1.8 ug/mL (12600 - MSSA; MSSA detected CFU 156, MRSA 0): 196 RLU | 2 HR AB + 2 HR Phage 1.8 ug/mL (12600 - MSSA; MSSA detected CFU 318, MRSA 0): 608 RLU | 3 HR AB + 1 HR Phage 1.8 ug/mL (12600 - MSSA; MSSA detected CFU 318, MRSA 0): 231 RLU | 2 HR AB + 2 HR Phage 1.8 ug/mL (12600 - MSSA; MSSA detected CFU 636, MRSA 0): 956 RLU | 3 HR AB + 1 HR Phage 1.8 ug/mL (12600 - MSSA; MSSA detected CFU 636, MRSA 0): 275 RLU | 2 HR AB + 2 HR Phage 1.8 ug/mL (12600 - MSSA; MSSA detected CFU 1272, MRSA 0): 1685 RLU | 3 HR AB + 1 HR Phage 1.8 ug/mL (12600 - MSSA; MSSA detected CFU 1272, MRSA 0): 321 RLU | 2 HR AB + 2 HR Phage 1.8 ug/mL (12600 - MSSA; MSSA detected CFU 2544, MRSA 0): 4715 RLU | 3 HR AB + 1 HR Phage 1.8 ug/mL (12600 - MSSA; MSSA detected CFU 2544, MRSA 0): 621 RLU | 2 HR AB + 2 HR Phage 1.8 ug/mL (12600 - MSSA; MSSA detected CFU 5088, MRSA 0): 8583 RLU | 3 HR AB + 1 HR Phage 1.8 ug/mL (12600 - MSSA; MSSA detected CFU 5088, MRSA 0): 901 RLU | 2 HR AB + 2 HR Phage 1.8 ug/mL (12600 - MSSA; [9]): 16340 RLU | 3 HR AB + 1 HR Phage 1.8 ug/mL (12600 - MSSA; [9]): 1098 RLU | 2 HR AB + 2 HR Phage 1.8 ug/mL (BAA-1720 - MRSA): 4218 RLU | 3 HR AB + 1 HR Phage 1.8 ug/mL (BAA-1720 - MRSA): 3136 RLU
